In US20220193076A1, “METHODS OF TREATING BREAST CANCER WITH TUCATINIB” (Seagen Inc., priority 2019, published 2022):
Several values for one entry are separate records, joined by “and”; a condition that tells them apart may be missing. Equal entries are not always repeated.

How the values were obtained:
[1] = Clinical plasma concentration of tucatinib; format: in vivo; conditions: human, read-out: Mean clinical maximum observed concentration (Cmax)
CYP3A4 [2] = assay: In vitro enzyme activity / mRNA induction in human hepatocytes; format: in vitro ADME
UGT1A1 = biological target: T1, UGT1A1 (Homo sapiens, UniProt P22309); assay: Ki determination in pooled human liver microsomes, β-estradiol 3-glucuronidation (Example 5); format: in vitro ADME
T1 construct: tissue BioreclamationIVT (Baltimore, Md.); host or cells: pooled human liver microsomes, 150 donors
T1 sequence (P22309 26-533): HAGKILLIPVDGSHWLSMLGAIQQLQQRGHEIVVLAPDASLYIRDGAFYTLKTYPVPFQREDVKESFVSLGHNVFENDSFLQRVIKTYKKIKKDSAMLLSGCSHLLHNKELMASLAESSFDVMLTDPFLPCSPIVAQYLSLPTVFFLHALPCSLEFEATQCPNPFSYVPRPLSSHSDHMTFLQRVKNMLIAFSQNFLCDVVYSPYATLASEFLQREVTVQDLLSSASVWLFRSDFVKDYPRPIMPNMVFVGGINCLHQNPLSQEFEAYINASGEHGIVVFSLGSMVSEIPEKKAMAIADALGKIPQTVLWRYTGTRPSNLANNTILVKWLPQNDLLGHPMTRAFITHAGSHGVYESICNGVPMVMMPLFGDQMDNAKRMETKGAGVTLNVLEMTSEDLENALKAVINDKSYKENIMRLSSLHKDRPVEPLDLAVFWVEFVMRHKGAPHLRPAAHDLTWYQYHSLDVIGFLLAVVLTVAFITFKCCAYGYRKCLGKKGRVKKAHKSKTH
Method: (§1) The objective of this study was to evaluate in vitro the Ki of tucatinib of the following human hepatic cytochrome P450 (CYP) enzymes (CYP2C8, CYP2C9, and CYP3A4) and UGT1A1. […] Pooled human liver microsomes (HLM) from 150 individuals (79 males and 71 females) were obtained from BioreclamationIVT (Baltimore, Md.) and stored at approximately −70° C. The microsomes were characterized by the supplier for total protein and selected cytochrome P450 activities. […] The final organic solvent contribution was ≤1%. Incubations were terminated by the addition of chilled acetonitrile containing a stable isotope-labeled internal standard. […] Samples were analyzed by liquid chromatography with tandem mass spectrometry (LC-MS/MS). Analyte concentrations were quantified by LC-MS/MS and interpolated from standard curves of authentic analyte. […] Activities were calculated based on analyte concentration, incubation time, and protein concentration. Enzymatic activity (pmol/minute/mg protein) was expressed as the formation of the analyte per final protein concentration per incubation time. Activity remaining was expressed as the enzymatic activity at each concentration point of the test article normalized by the solvent control mean activity. […]

CYP3A4 [3] = biological target: CYP3A4 (Homo sapiens, UniProt P08684); assay: Ki determination in pooled human liver microsomes, midazolam 1'-hydroxylase (Example 5); format: in vitro ADME
Chain of CYP3A4 (Homo sapiens, UniProt P08684) (P08684 whole entry): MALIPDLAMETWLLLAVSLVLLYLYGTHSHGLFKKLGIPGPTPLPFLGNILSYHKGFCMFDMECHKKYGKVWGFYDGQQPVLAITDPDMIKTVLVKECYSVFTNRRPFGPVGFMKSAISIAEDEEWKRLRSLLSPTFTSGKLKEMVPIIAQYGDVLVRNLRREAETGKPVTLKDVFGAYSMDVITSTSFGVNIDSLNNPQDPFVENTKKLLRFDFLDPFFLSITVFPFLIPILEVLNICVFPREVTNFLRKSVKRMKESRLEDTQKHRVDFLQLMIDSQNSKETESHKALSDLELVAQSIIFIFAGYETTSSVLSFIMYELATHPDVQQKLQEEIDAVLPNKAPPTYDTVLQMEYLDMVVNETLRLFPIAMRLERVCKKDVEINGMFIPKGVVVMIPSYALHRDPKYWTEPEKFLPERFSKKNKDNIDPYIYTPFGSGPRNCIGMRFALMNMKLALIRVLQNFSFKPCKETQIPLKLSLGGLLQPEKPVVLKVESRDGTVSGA
Method: as §1

CYP2C8 = biological target: T2, CYP2C8 (Homo sapiens, UniProt P10632); assay: Example 2 Part C: effect of strong CYP2C8 inhibitor gemfibrozil on PK of tucatinib; format: in vivo; parameters: endogenous in cells; host or cells: healthy human subjects, in vivo; conditions: tucatinib 300 mg single dose in combination with gemfibrozil vs tucatinib alone
T2 sequence (P10632 1-490): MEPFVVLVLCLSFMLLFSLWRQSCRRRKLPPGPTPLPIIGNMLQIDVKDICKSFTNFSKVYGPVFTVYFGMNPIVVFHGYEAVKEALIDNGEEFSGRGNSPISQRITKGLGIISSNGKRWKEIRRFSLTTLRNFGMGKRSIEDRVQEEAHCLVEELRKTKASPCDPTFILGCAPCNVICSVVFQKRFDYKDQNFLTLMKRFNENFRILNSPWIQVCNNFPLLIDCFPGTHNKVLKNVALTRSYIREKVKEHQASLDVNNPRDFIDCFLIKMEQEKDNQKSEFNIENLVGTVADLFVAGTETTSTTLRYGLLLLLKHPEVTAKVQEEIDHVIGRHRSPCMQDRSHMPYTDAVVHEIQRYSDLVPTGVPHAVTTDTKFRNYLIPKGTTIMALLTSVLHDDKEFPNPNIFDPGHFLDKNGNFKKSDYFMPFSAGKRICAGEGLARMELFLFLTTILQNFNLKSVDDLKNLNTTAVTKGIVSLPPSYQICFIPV
Method: From Day 3 to Day 8, each subject received single oral doses of 600 mg of gemfibrozil (BID), twice daily (BID). On Day 7, each subject received a single oral dose of 300 mg of tucatinib. […] Other noncompartmental PK parameters may be reported. Additionally, blood samples were collected for determination of trough levels of gemfibrozil prior to morning dosing on the days indicated in FIG. 7.

MATE2K = MATE2K (Homo sapiens, UniProt Q86VL8); assay: In vitro inhibition of MATE2K transporter; format: in vitro ADME
Chain of MATE2K (Q86VL8 1-566 isoform Q86VL8-3): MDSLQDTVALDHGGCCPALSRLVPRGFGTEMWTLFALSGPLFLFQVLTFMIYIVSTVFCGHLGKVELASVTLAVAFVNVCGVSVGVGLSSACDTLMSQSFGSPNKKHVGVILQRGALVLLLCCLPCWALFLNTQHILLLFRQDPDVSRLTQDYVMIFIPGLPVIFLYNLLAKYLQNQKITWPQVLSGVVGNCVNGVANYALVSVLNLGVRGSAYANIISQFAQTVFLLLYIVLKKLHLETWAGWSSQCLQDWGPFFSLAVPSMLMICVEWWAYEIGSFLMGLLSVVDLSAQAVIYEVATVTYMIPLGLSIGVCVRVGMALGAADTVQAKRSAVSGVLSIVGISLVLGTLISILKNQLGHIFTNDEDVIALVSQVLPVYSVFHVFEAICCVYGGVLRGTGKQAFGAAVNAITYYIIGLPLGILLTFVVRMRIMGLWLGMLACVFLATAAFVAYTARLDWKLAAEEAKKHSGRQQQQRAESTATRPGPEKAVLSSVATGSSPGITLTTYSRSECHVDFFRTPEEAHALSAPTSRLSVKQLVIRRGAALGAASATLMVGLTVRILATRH

[4] = Example 1: plasma tucatinib trough concentrations; format: in vivo, human; conditions: 300 mg tucatinib bid from Day 2

Cc1cc(Nc2ncnc3ccc(NC4=NC(C)(C)CO4)cc23)ccc1Oc1ccn2ncnc2c1 [tucatinib]
Cmax [1]: 1000 to 2000 nM | Induction of in vitro enzyme activity or messenger ribonucleic acid, CYP3A4 (CYP3A4 [2]): did not induce | Inhibition mechanism, UGT1A1 (UGT1A1): competitive inhibition | Ki (UGT1A1; marker substrate β-estradiol): 1810 nM | Inhibition mechanism, CYP3A4 (CYP3A4 [3]): competitive inhibition | Ki (CYP3A4 [3]; marker substrate midazolam): 810 nM and 805 nM | Geometric LS mean ratio (90% CI), AUC0-∞ (CYP2C8): 3.04 (2.66, 3.46) | Geometric LS mean ratio (90% CI), AUClast (CYP2C8): 2.99 (2.62, 3.41) | Geometric LS mean ratio (90% CI), Cmax (CYP2C8): 1.62 (1.47, 1.79) | IC50 (MATE2K): 140 nM | Steady-state plasma concentrations reached by [4]: ≤ 6 days
